According to patent publication US20220133662A1, “ORAL DRUG, ADJUVANT CANCER THERAPY, AND PET THERAPEUTIC DIET” (priority 2019, published 2022):

How the values were obtained:
COS7 cells = assay: Survival rate of COS7 cells (MTT), ketone donors alone or with cisplatin; type: cell-based; conditions: 1 mM ketone donor added with cisplatin, versus untreated group
Protocol: (§1) COS7 cells, that are a renal cytoblastoma, were used. Subconfluent cells were spread on 24-well plates at a density of 40,000 cells/cm^2 and cultured in Dulbecco's Modified Eagle Medium (D-MEM) containing 10% of inactivated fetal bovine serum for one hour. Various concentrations of ketone bodies (HB) and ketone ester (KE) were added to the culture medium of COS7 cells and cultured for 24 hours. After 24 hours of culturing, the culture medium was removed, and COS7 cells were cultured for two hours in PBS with 1 mg/ml of a chromogenic reagent 3-(4,5-dimethylthiazol-2-yl)-2,5-diphenyl tetrazolium bromide (MTT, Wako Pure Chemical Corporation).
(§2) After the culturing, cell lysis solution (50% formamide, 20% sodium dodecyl sulfate) was added and left for 24 hours. Thereafter, the absorbance at 540 nm was measured using an absorbance measurement device (Biorad microplate reader), and the measured absorbance was used to calculate survival rates of COS7 cells.

Hela cells = assay: Survival rate of Hela cells (MTT), ketone donors alone or with cisplatin; type: cell-based; conditions: 1 mM ketone donor with 0.3-3 μM of cisplatin, versus untreated group
Protocol: as §1, §2

[1] = cited from earlier work
[2] = in vivo; cited from earlier work
[3] = Ketone body concentration in the blood after a single ingestion in yogurt; type: in vivo; conditions: humans, 500 mg/kg of body weight in yogurt (200 g)
Protocol: PHB was extracted from OITC1261 by the method for purifying the powdered PHB shown in Example 2 (purity: 90%, weight-average molecular weight: 590,000). Ketone ester and PHB whose amounts were adjusted such that the intake thereof was 500 mg/kg of body weight were mixed uniformly in yogurt (200 g) and fed to humans. The ketone body concentration in the blood was measured using a ketone body value electrode (FS Precision ketone measurement electrode) of Precision Exceed (Abbott) every other hour. After ketone bodies were confirmed to be stable, plain yogurt was ingested.
The horizontal axis of the graph in FIG. 8 represents time. The vertical axis represents the ketone body concentration in the blood. Squares represent changes in the ketone body concentration in the blood over time in a group that ingested plain yogurt mixed with ketone ester. […]
The powdered PHB and ketone bodies whose amounts were adjusted such that the intake thereof was 500 mg, 300 mg, 100 mg, or 0 mg/kg of body weight were mixed uniformly in yogurt (200 g) and fed to humans. […] The ketone body concentration in the blood over time was measured using a ketone body value electrode (FS Precision ketone measurement electrode) of Precision Exceed (Abbott) every other hour. […]

| Structure (SMILES) | adjuvant effect on toxicity caused by cisplatin (COS7 cells) | adjuvant effect on toxicity caused by cisplatin (Hela cells) | time in which ketone body concentration in the blood increases after ingestion ([1]; ketone bodies ingested) | share of ketone bodies transferred to the brain [2] | time after ingestion at which ketone body concentration in the blood returns to the original level [3] | increase of the ketone body concentration in the blood ([1]; ketone ester ingested) |
| --- | --- | --- | --- | --- | --- | --- |
| C[C@@H](O)CC(=O)O [ketone bodies, (R)-3-β-hydroxybutyric acid] | significantly promoted the toxic effect caused by cisplatin | significantly promoted the toxic effects due to cisplatin | within a few minutes | 20-30% | – | – |
| C[C@@H](O)CCOC(=O)C[C@@H](C)O [ketone ester, 3-hydroxybutyl-3-hydroxybutyric acid] | – | – | – | – | about five | several mM in a few minutes |
